Laboratory results reported in patent US20190263796A1, “LIM KINASE INHIBITORS, PHARMACEUTICAL COMPOSITION AND METHOD OF USE IN LIMK-MEDIATED DISEASES” (CELLIPSE, priority 2016, published 2019).
Where two headings read alike, the source gives them in different places.

Key:
[1] = tested on: Phospho-Ser3-Cofilin/Total Cofilin; experiment: Western blot of cellular cofilin phosphorylation status, MV4-11 (II.4); format: cell-based; conditions: Homo sapiens; MV4-11 cells; 2 h treatment
Method: MV4-11 cell line was originally purchased from the American Type Culture Collection (ATCC). MV4-11 cells are cultured in RPMI 1640 10% (v/v) FBS supplemented with 100 U/mL^−1 penicillin, 0.1 mg·mL^−1 streptomycin (PAN Biotech P06-07100) and 2 mM Glutamine (Sigma-Aldrich 59202C). Cells were maintained at 37° C. with 5% CO2.
(§1) In a 6 wells plate (Falcon 353046), 2·10^6 cells in 1.5 mL medium are treated for 2 h with compounds. Cells are then collected and cell lysis is performed at 4° C. using RIPA buffer supplemented with protease inhibitors cocktail (Sigma-Aldrich P8340) and phosphatase inhibitors cocktail (Sigma-Aldrich P5726). Following centrifugation 30 min 15000 g 4° C., supernatants are mixed with Laemmli buffer and denaturation is performed by heating 5 min 95° C. 10 μL of samples are subjected to electrophoresis on 15% SDS-PAGE. After electro-transfer (Mini Transblot, Bio-Rad), the PVDF membrane (Merck-Millipore Immobilon P IPVH00010) is blocked with Tris Buffered Saline, pH 7.4 (TBS) with 0.1% Tween 20 and 5% BSA for 1 h RT under agitation. The membrane was rinsed 3 times 10 min RT under agitation with TBS, 0.1% Tween-20 (TBST) and then 1 h RT with anti-phospho-Ser3-cofilin (Cell Signaling Technology #3313, 1/1000 dilution) antibody or anti-cofilin (Cell Signaling Technology #3312, 1/1000 dilution) diluted in TBS, 0.1% Tween 20 and 1% BSA. The membrane is then rinsed 3 times 10 min RT under agitation in TBST and incubated for 1 hour with anti-rabbit secondary antibody, horseradish peroxidase conjugated (Jackson Immunoresearch #711-036-152) under agitation at room temperature. After three washes 10 min RT in TBST, the detection of total or phosphorylated cofilin was performed using chemiluminescence kit ECL™ Plus (GE Healthcare RPN2132). For each concentration of compound, ratio between phosphorylated cofilin and total cofilin is determined. This ratio is then expressed as percentage of control ratio (i.e ratio from DMSO treated cells). IC50 is then determined.

[2] = biological target: B-Raf(h) (Homo sapiens, UniProt P15056); experiment: B-Raf kinase assay (Eurofins Panlabs, radiometric); format: biochemical; parameters: purchased Eurofins Panlabs Inc. (contract assay service); conditions: Table 8; for IC50: 120 μM ATP, read-out: IC50 B-Raf; for Selectivity ratio: IC50 B-Raf (nM) divided by IC50 LIMK1 (nM)
Chain of B-Raf(h) (P15056 whole entry): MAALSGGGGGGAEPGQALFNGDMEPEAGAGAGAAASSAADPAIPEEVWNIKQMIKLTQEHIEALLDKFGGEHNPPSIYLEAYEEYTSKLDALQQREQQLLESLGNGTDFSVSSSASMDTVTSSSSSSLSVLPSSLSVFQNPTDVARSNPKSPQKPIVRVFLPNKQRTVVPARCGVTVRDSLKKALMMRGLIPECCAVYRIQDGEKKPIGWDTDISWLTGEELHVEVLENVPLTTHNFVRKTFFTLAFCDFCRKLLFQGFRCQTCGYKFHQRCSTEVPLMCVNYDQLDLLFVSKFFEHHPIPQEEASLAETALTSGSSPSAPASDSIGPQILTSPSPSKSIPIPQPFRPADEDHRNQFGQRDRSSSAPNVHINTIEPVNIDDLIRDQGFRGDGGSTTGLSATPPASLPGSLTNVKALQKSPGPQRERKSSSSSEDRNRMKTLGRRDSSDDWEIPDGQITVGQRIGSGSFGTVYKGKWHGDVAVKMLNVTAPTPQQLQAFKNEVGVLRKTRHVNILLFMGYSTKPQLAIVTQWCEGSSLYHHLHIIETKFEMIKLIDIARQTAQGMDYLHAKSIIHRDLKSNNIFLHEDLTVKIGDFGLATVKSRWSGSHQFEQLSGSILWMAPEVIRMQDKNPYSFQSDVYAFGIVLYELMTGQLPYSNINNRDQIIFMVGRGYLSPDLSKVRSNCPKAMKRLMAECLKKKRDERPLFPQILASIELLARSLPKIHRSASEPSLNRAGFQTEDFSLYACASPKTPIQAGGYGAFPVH
Method: IC50 B-Raf is then determined.
Selectivity ratios are calculated by dividing the IC50 B-Raf (nM) by the IC50 LIMK1 (nM).

[3] = biological target: LIMK1(h) (Homo sapiens, UniProt P53667); experiment: LIMK1 kinase assay (Eurofins Panlabs, radiometric); format: biochemical; parameters: purchased Eurofins Panlabs Inc. (contract assay service); conditions: 15 μM ATP, read-out: IC50 LIMK1
Chain of LIMK1(h) (P53667 whole entry): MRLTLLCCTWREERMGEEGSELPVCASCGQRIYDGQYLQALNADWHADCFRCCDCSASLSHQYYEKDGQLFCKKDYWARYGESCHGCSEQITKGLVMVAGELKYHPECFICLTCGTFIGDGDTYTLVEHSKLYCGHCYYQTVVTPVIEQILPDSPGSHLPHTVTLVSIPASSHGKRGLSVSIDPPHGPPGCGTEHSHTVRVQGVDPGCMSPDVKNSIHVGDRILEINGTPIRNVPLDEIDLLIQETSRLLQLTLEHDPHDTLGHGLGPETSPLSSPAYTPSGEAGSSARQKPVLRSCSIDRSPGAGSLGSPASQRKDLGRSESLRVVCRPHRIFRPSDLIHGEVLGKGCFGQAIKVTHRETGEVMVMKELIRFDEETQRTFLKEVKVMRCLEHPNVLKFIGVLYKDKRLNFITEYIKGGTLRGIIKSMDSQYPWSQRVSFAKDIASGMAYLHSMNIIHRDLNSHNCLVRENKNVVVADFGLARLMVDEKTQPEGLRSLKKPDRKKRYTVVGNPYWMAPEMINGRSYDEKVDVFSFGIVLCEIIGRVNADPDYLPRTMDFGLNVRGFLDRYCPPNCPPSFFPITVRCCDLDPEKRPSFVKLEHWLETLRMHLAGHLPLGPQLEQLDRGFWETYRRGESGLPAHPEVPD
Method: Compounds were tested in a LIMK1 assay performed by Eurofins Panlabs Inc. LIMK1 (h) is incubated with 8 mM MOPS pH 7.0, 0.2 mM EDTA, 0.6 mg/mL cofilin, 10 mM Magnesium acetate and [gamma-33P]-ATP. The reaction is initiated by the addition of the Mg/ATP mix. After incubation for 40 min at room temperature, the reaction is stopped by the addition of phosphoric acid to a concentration of 0.5%. […] IC50 LIMK1 is then determined.

[4] = tested on: Phospho-Ser3-Cofilin/Total Cofilin; experiment: Western blot cofilin phosphorylation, HL-60; format: cell-based; conditions: Homo sapiens; HL-60 cells; 2 h
Method: (§2) HL-60 cell line was originally purchased from the Leibniz-Institut Deutsche Sammlung von Mikroorganismen und Zellkulturen GmbH (DSMZ). HL-60 cells are cultured in RPMI 1640 10% (v/v) FBS supplemented with 100 U/mL^−1 penicillin, 0.1 mg·mL^−1 streptomycin (PAN Biotech P06-07100). Cells were maintained at 37° C. with 5% CO2.
as §1, with “10 min at room temperature under agitation” for “10 min RT under agitation”, “1 h at room temperature with anti-phospho-Ser3-cofilin” for “1 h RT with anti-phospho-Ser3-cofilin”, “for 1 h with anti-rabbit” for “for 1 hour with anti-rabbit”, “10 min at room temperature in TBST,” for “10 min RT in TBST,”, “control ratio (i.e., ratio from” for “control ratio (i.e ratio from”, “cells). IC50 Phospho-Ser3-Cofilin/Total Cofilin is then” for “cells). IC50 is then”

[5] = tested on: P-MEK/Total MEK; experiment: Western blot MEK1 phosphorylation, MOLM-13; format: cell-based; conditions: read-out: IC50 P-MEK/Total MEK; MOLM-13 cells; 2 h
Method: as §2, with “MOLM-13” for “HL-60”, “20%” for “10%”
(§3) In a 6 wells plate (Falcon 353046), 2·10^6 cells in 1.5 mL medium are treated for 2 h with compounds. Cells are then collected and cell lysis is performed at 4° C. using RIPA buffer supplemented with protease inhibitors cocktail (Sigma-Aldrich P8340) and phosphatase inhibitors cocktail (Sigma-Aldrich P5726). Following centrifugation 30 min 15000 g 4° C., supernatants are mixed with Laemmli buffer and denaturation is performed by heating 5 min 95° C. 10 μL of samples are subjected to electrophoresis on 15% SDS-PAGE. After electro-transfer (Mini Transblot, Bio-Rad), the PVDF membrane (Merck-Millipore Immobilon P IPVH00010) is blocked with Tris Buffered Saline, pH 7.4 (TBS) with 0.1% Tween 20 and 5% BSA for 1 h at room temperature under agitation. The membrane was rinsed 3 times 10 min at room temperature under agitation with TBS, 0.1% Tween-20 (TBST) and then 1 h at room temperature with anti-phospho-Ser218/222-MEK1 (Merck-Millipore 07-461, 1/1000 dilution) antibody or anti-MEK1 (Merck-Millipore 07-641, 1/1000 dilution) diluted in TBS, 0.1% Tween 20 and 1% BSA. The membrane is then rinsed 3 times 10 min RT under agitation in TBST and incubated for 1 h with anti-rabbit secondary antibody, horseradish peroxidase conjugated (Jackson Immunoresearch #711-036-152) under agitation at room temperature. After three washes 10 min at room temperature in TBST, the detection of total or phosphorylated cofilin was performed using chemiluminescence kit ECL™ Plus (GE Healthcare RPN2132). For each concentration of compound, ratio between phosphorylated cofilin and total cofilin is determined. This ratio is then expressed as percentage of control ratio (i.e., ratio from DMSO treated cells). IC50 P-MEK/Total MEK is then determined.
(§4) Selectivity ratios are calculated by dividing the IC50 P-MEK/Total MEK value (μM) by the IC50 Phospho-Ser3-Cofilin/Total Cofilin value (μM).

[6] = tested on: Phospho-Ser3-Cofilin/Total Cofilin; experiment: Western blot cofilin phosphorylation, MOLM-13; format: cell-based; conditions: MOLM-13 cells; 2 h
Method: as §2, with “MOLM-13” for “HL-60”, “20%” for “10%”
as §1, with “10 min at room temperature under agitation” for “10 min RT under agitation”, “1 h at room temperature with anti-phospho-Ser3-cofilin” for “1 h RT with anti-phospho-Ser3-cofilin”, “for 1 h with anti-rabbit” for “for 1 hour with anti-rabbit”, “10 min at room temperature in TBST,” for “10 min RT in TBST,”, “control ratio (i.e., ratio from” for “control ratio (i.e ratio from”, “cells). IC50 Phospho-Ser3-Cofilin/Total Cofilin is then” for “cells). IC50 is then”

[7] = tested on: P-MEK/Total MEK; experiment: Western blot MEK1 phosphorylation, HL-60; format: cell-based; conditions: Homo sapiens, HL-60, 2 h, read-out: IC50 P-MEK/Total MEK
Method: as §2, §3, §4

[8] = tested on: Phospho-Ser3-Cofilin/Total Cofilin; experiment: Western blot cofilin phosphorylation, Kasumi-1; format: cell-based; conditions: Homo sapiens; Kasumi-1 cells; 2 h
Method: Kasumi-1 cell line was originally purchased from the American Type Culture Collection (ATCC). Kasumi-1 cells are cultured in RPMI 1640 20% (v/v) FBS supplemented with 100 U/mL^−1 penicillin, 0.1 mg·mL^−1 streptomycin (PAN Biotech P06-07100). Cells were maintained at 37° C. with 5% CO2.
In a 6 wells plate (Falcon 353046), 2·10^6 cells in 1.5 mL medium are treated for 2 h with compounds. Cells are then collected and cell lysis is performed at 4° C. using RIPA buffer supplemented with protease inhibitors cocktail (Sigma-Aldrich P8340) and phosphatase inhibitors cocktail (Sigma-Aldrich P5726). Following centrifugation 30 min 15000 g 4° C., supernatants are mixed with Laemmli buffer and denaturation is performed by heating 5 min 95° C. 10 μL of samples are subjected to electrophoresis on 15% SDS-PAGE. After electro-transfer (Mini Transblot, Bio-Rad), the PVDF membrane (Merck-Millipore Immobilon P IPVH00010) is blocked with Tris Buffered Saline, pH 7.4 (TBS) with 0.1% Tween 20 and 5% BSA for 1 h RT under agitation. […] For each concentration of compound, ratio between phosphorylated cofilin and total cofilin is determined. This ratio is then expressed as percentage of control ratio (i.e., ratio from DMSO treated cells). IC50 Phospho-Ser3-Cofilin/Total Cofilin is then determined.

[9] = tested on: Phospho-Ser3-Cofilin/Total Cofilin; experiment: Western blot cofilin phosphorylation, MOLM-14; format: cell-based; conditions: MOLM-14 cells; 2 h
Method: (§5) MOLM-14 cell line was originally purchased from the American Type Culture Collection (ATCC). MOLM-14 cells are cultured in MEM alpha 10% (v/v) FBS supplemented with 100 U/mL^−1 penicillin, 0.1 mg·mL^−1 streptomycin (PAN Biotech P06-07100). Cells were maintained at 37° C. with 5% CO2.
as §1, with “10 min at room temperature under agitation” for “10 min RT under agitation”, “1 h at room temperature with anti-phospho-Ser3-cofilin” for “1 h RT with anti-phospho-Ser3-cofilin”, “for 1 h with anti-rabbit” for “for 1 hour with anti-rabbit”, “10 min at room temperature in TBST,” for “10 min RT in TBST,”, “control ratio (i.e., ratio from” for “control ratio (i.e ratio from”, “cells). IC50 Phospho-Ser3-Cofilin/Total Cofilin is then” for “cells). IC50 is then”

[10] = tested on: P-MEK/Total MEK; experiment: Western blot MEK1 phosphorylation, Kasumi-1; format: cell-based; conditions: Homo sapiens, Kasumi 1, 2 h, read-out: IC50 P-MEK/Total MEK
Method: Cells were maintained at 37° C. with 5% CO2.
as §3, §4

[11] = tested on: P-MEK/Total MEK; experiment: Western blot MEK1 phosphorylation, MOLM-14; format: cell-based; conditions: read-out: IC50 P-MEK/Total MEK; MOLM-14 cells; 2 h
Method: as §5, §3, §4

| Structure (SMILES) | IC50 [1] | IC50 [2] | Selectivity ratio [2] | IC50 ([3]; Table 2) | further results |
| --- | --- | --- | --- | --- | --- |
| CCOC(=O)Cc1nc(-c2cccc(NS(=O)(=O)c3c(F)cccc3F)c2F)c(-c2ccnc(Nc3ccccc3)n2)s1 [Compound 2, ethyl 2-(4-(3-(2,6-difluorophenylsulfonamido)-2-fluorophenyl)-5-(2-(phenylamino)pyrimidin-4-yl)thiazol-2-yl)acetate] | > 1000 nM | 10 to 100 nM | 4 | < 10 nM |  |
| CC(C)(C)c1nc(-c2cccc(NC(=O)C(=O)c3c(F)cccc3F)c2F)c(-c2ccnc(Nc3ccccc3)n2)s1 [Compound 5, N-(3-(2-(tert-butyl)-5-(2-(phenylamino)pyrimidin-4-yl)thiazol-4-yl)-2-fluorophenyl)-2-(2,6-difluorophenyl)-2-oxoacetamide] |  | 500 to 5000 nM | 11 | 100 to 500 nM | IC50 ([3]; Table 8): 500 to 5000 nM |
| CCCS(=O)(=O)Nc1cccc(-c2nc(C(C)(C)C)sc2-c2ccnc(Nc3ccccc3)n2)c1F [Compound 3, N-(3-(2-(tert-butyl)-5-(2-(phenylamino)pyrimidin-4-yl)thiazol-4-yl)-2-fluorophenyl)propane-1-sulfonamide] | < 200 nM |  |  | 100 to 500 nM |  |
| CC(C)(C)c1nc(-c2cccc(NS(=O)(=O)C3CC3)c2F)c(-c2ccnc(Nc3ccccc3)n2)s1 [Compound 10, N-(3-(2-(tert-butyl)-5-(2-(phenylamino)pyrimidin-4-yl)thiazol-4-yl)-2-fluorophenyl)cyclopropanesulfonamide] |  |  |  | 100 to 500 nM |  |
| CNC(=O)Cc1nc(-c2cccc(NS(=O)(=O)c3c(F)cccc3F)c2F)c(-c2ccnc(Nc3ccccc3)n2)s1 [9 (Na)] |  |  |  |  | IC50 [4]: 200 to 1000 nM; IC50 [5]: > 1000 nM; IC50 [6]: 200 to 1000 nM; IC50 [7]: > 1000 nM; IC50 [8]: 200 to 1000 nM; IC50 [9]: < 200 nM; IC50 [10]: > 1000 nM; IC50 [11]: 200 to 1000 nM |
| CC(C)(C)c1nc(-c2cccc(NS(=O)(=O)c3c(F)cccc3F)c2F)c(-c2ncnc3[nH]ccc23)s1 [Compound 7, N-(3-(2-(tert-butyl)-5-(7H-pyrrolo[2,3-d]pyrimidin-4-yl)thiazol-4-yl)-2-fluorophenyl)-2,6-difluorobenzenesulfonamide] | 200 to 1000 nM |  |  | 500 to 5000 nM |  |
| CC(C)(C)c1nc(-c2cccc(NS(=O)(=O)CCC(F)(F)F)c2F)c(-c2ccnc(Nc3ccccc3)n2)s1 [Compound 4, N-(3-(2-(tert-butyl)-5-(2-(phenylamino)pyrimidin-4-yl)thiazol-4-yl)-2-fluorophenyl)-3,3,3-trifluoropropane-1-sulfonamide] | 200 to 1000 nM |  |  | 100 to 500 nM |  |
| CC(C)(C)OC(=O)Nc1cccc(-c2nc(C(C)(C)C)sc2-c2ccnc(Nc3ccccc3)n2)c1F [Compound 6, tert-butyl (3-(2-(tert-butyl)-5-(2-(phenylamino)pyrimidin-4-yl)thiazol-4-yl)-2-fluorophenyl)carbamate] | > 1000 nM | 500 to 5000 nM | 16 | 500 to 5000 nM |  |
